In patent US20080027042A1, “Novel Aminopyridine Derivatives Having Aurora a Selective Inhibitory Action” (priority 2004, published 2008):

Experiments:
Aurora A = biological target: T1, Aurora A (Homo sapiens, UniProt O14965); test: Aurora A inhibitory action (33P-ATP kinase assay, Kemptide substrate); type: biochemical; details: 20 μM ATP, 30° C., 20 minutes
T1 construct: histidine tag (N); made in house; host or cells: Escherichia coli BL21-CodonPlus(DE3)-RIL
T1 sequence (O14965 1-403): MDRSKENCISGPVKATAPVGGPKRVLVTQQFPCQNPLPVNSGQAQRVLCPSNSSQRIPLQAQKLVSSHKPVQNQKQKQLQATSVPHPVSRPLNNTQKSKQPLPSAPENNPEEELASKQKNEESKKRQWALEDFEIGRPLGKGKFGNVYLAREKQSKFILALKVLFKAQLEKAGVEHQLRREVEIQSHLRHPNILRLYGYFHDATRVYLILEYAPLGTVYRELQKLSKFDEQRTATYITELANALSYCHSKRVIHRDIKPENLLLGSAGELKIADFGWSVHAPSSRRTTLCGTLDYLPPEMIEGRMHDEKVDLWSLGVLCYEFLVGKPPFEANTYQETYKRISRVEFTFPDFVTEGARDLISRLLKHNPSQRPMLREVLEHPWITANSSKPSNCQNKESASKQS
How it was run: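 His-tagged Aurora A expressed in E. coli, Ni-purified; reaction in 50 mM Tris pH 7.4, 15 mM Mg acetate, 0.2 mM EDTA with 100 μM Kemptide, 20 μM ATP plus [γ-33P]ATP, 20 min at 30 °C. Phosphopeptide captured on P81 filters and counted by scintillation; DMSO control.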

Aurora B = biological target: T2, Aurora B (Homo sapiens, UniProt Q96GD4); test: Aurora B inhibitory action (33P-ATP kinase assay, Kemptide substrate); type: biochemical; details: 100 μM ATP, 30° C., 20 minutes
T2 construct: histidine tag (N); made in house; host or cells: Escherichia coli BL21-CodonPlus(DE3)-RIL
T2 sequence (Q96GD4 whole entry): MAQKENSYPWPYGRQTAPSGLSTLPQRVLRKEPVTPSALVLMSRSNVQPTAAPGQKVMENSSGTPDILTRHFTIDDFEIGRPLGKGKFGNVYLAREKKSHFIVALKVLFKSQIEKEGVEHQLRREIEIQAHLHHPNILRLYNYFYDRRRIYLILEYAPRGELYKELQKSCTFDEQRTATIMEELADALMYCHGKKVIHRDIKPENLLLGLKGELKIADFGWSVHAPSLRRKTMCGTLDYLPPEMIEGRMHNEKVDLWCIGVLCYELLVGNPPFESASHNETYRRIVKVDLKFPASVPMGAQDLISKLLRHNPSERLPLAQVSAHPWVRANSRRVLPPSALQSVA
How it was run: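 His-tagged Aurora B expressed in E. coli, reacted with 100 μM Kemptide, 100 μM ATP plus [γ-33P]ATP in Tris pH 7.4, 15 mM Mg acetate, 0.2 mM EDTA, 30 °C, 20 min. Peptide captured on P81 filters for scintillation counting; compounds added from DMSO dilutions.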

[1] = test system: Human cervical cancer cells (HeLa S3); test: Cell growth inhibitory effect, WST-8 method; type: cell-based; details: 72 h, HeLa S3, three days incubation
Text: Method for Judging the Pharmaceutical Effect Using cells
Fetal calf serum (FCS) was purchased from Moregate Biotech, and DMEM medium was purchased from Invitrogen Corp. WST-8 was purchased from Kishida Chemical Co., Ltd.
(§1) Human cervical cancer cells (HeLa S3) were obtained from the American Type Culture Collection (ATCC).
(§2) c) Method of Judging the Effect
Cells were suspended in a DMEM medium containing 10% FCS, and the cell suspension was dispensed to a 96-well plastic plate at a rate of 750 cells/l 00 microliters per well. The plate was incubated overnight in 5% CO2-95% air at 37° C. A drug was subjected to graded dilution in dimethylsulfoxide and further diluted with a DMEM medium containing 10% FCS. Then, the dilution was dispensed to the plate on which cells had been disseminated, at a rate of 100 microliters per well. The plate was incubated for further three days in 5% CO2-95% air at 37° C. Cell growth after incubation was measured by the WST-8 method (H. Tominaga, et al., Anal. Commun., 36, 47-50 (1999)). Here, the WST-8 method refers to a method in which 20 microliters of a WST-8 reagent solution is added to each well, incubation is conducted at 37° C. for 45 minutes, the plate is stirred, and the amount of formazan produced is measured by a calorimetric method to determine the inhibitory rate of the drug. The concentration for 50% growth inhibition (EC50, IM) of the compound was determined.

[2] = test system: Human cervical cancer cells (HeLa S3); test: Effect by combined use of drugs in cells (with paclitaxel), WST-8 method; type: cell-based; details: three days; for inhibition at 1 µM: HeLa S3, compound 1.0 μM alone; for inhibition at 0.3 µM: HeLa S3, compound 0.3 μM alone; for inhibition at 0.1 µM: HeLa S3, compound 0.1 μM alone; for inhibition at 0.03 µM: HeLa S3, compound 0.03 μM alone
Text: Method for Judging the Effect by Combined Use of Drugs in Cells
Fetal calf serum (FCS) was purchased from Moregate Biotech, DMEM medium from Invitrogen Corp., paclitaxel (tradename: Taxol) from Sigma-Aldrich, Inc., and WST-8 from Kishida Chemical Co., Ltd.
as §1, §2
Cells were suspended in a DMEM medium containing 10% FCS, and the cell suspension was dispensed to two 96-well plastic plates at a rate of 750 cells/100 microliters per well. The plates were incubated overnight in 5% CO2-95% air at 37° C. A drug was subjected to graded dilution in dimethylsulfoxide and flurther diluted with DMSO or with a DMEM medium containing 10% FCS and also containing 2 nM paclitaxel. Then, the dilutions were each dispensed to one of the plates on which cells had been disseminated, at a rate of 100 microliters per well. The final concentration of paclitaxel at this stage was 1 nM. Also, the concentrations in the case of sole administration of the compound according to the invention were 0.03, 0.1, 0.3, 1 and 3 μM. The plates were incubated for further three days in 5% CO2-95% air at 37° C. Cell growth after incubation was measured by the WST-8 method (H. Tominaga, et al., Anal. Commun., 36, 47-50 (1999)). Here, the WST-8 method refers to a method in which 20 microliters of a WST-8 reagent solution is added to each well, incubation is conducted at 37° C. for 45 minutes, the plate is stirred, and the amount of formazan produced is measured by a colorimetric method to determine the inhibitory rate of the drug. The growth inhibitory effects of paclitaxel and of the compound according to the invention were determined, with the value obtained in sole treatment of DMSO being defined as 0%.

[3] = HeLa S3, compound 1.0 μM + paclitaxel 1 nM
[4] = Homo sapiens, HeLa S3, 72 h, read-out: Cell growth inhibitory effect by sole administration of the compound of Example (%)
[5] = HeLa S3, compound 0.3 μM + paclitaxel 1 nM
[6] = HeLa S3, compound 0.1 μM + paclitaxel 1 nM
[7] = HeLa S3, compound 0.03 μM + paclitaxel 1 nM

Row | Compound | IC50 (Aurora A) [nM] | IC50 (Aurora B) [nM] | IC50 [1] [nM] | Cell growth inhibitory effect by combined administration of paclitaxel and the compound of Example (%) [2, 3] [%] | inhibition at 1 µM [2, 4] [%] | Cell growth inhibitory effect by combined administration of paclitaxel and the compound of Example (%) [2, 5] [%] | inhibition at 0.3 µM [2, 4] [%] | Cell growth inhibitory effect by combined administration of paclitaxel and the compound of Example (%) [2, 6] [%] | inhibition at 0.1 µM [2, 4] [%] | Cell growth inhibitory effect by combined administration of paclitaxel and the compound of Example (%) ([2]; HeLa S3, compound 3.0 μM + paclitaxel 1 nM) | inhibition at 3 µM ([2]; Homo sapiens, HeLa S3, 72 h, HeLa S3, compound 3.0 μM alone, read-out: Cell growth inhibitory effect by sole administration of the compound of Example (%)) [%] | Cell growth inhibitory effect by combined administration of paclitaxel and the compound of Example (%) [2, 7] [%] | inhibition at 0.03 µM [2, 4] [%]
1 | O=C(c1cccc(Cl)c1F)N1C[C@@H]2C[C@H]1CN2Cc1cncc(Nc2cc[nH]n2)n1 [Example 46, 6-(((1S,4S)-5-(3-chloro-2-fluorobenzoyl)-2,5-diazabicyclo[2.2. 1]hept-2-yl)methyl)-N-1H-pyrazol-3-ylpyrazin-2-amine] | 6.1 | 1400 | 4100 | 75.0 | 8.5 | – | – | – | – | – | – | – | –
2 | O=C(c1cccc(Cl)c1F)N1CCN(Cc2cncc(Nc3nccs3)n2)CC1 [Example 58, 6-((4-(3-chloro-2-fluorobenzoyl)piperazin-1-yl)methyl)-N-thiazol-2-ylpyrazin-2-amine] | 4.8 | 9900 | 3000 | 81.4 | 0 | – | – | – | – | – | – | – | –
3 | O=C(c1ccco1)N1CCN(Cc2cccc(Nc3ncc(Cl)s3)n2)CC1 [Example 62] | 12 | 380 | 860 | – | – | – | – | 68.0 | 2.9 | – | – | – | –
4 | O=C(c1cccs1)N1CCN(Cc2cccc(Nc3ncc(Cl)s3)n2)CC1 [Example 66, 6-((4-(2-thienylcarbonyl)piperazin-1-yl)methyl)-N-(5-chlorothiazol-2-yl)pyridin-2-amine] | 3.4 | 250 | 2900 | 60.9 | 7.2 | – | – | – | – | – | – | – | –
5 | Cc1nc(C(=O)N2CCN(Cc3cccc(Nc4ncc(Cl)s4)n3)CC2)cs1 [Example 68, 6-((4-((2-methyl-thiazol-4-yl)carbonyl)piperazin-1-yl)methyl)-N-(5-chlorothiazol-2-yl)pyridin-2-amine] | 11 | 670 | 5100 | – | – | – | – | – | – | 71.8 | 27.3 | – | –
6 | N#Cc1cccc(C(=O)N2CCN(Cc3cccc(Nc4ncc(Cl)s4)n3)CC2)c1 [Example 71, 6-((4-(3-cyanobenzoyl)piperazin-1-yl)methyl)-N-(5-chlorothiazol-2-yl)pyridin-2-amine] | 3 | 370 | 3000 | 60.7 | 13.2 | – | – | – | – | – | – | – | –
7 | O=C(Cc1ccc(Cl)cc1)N1CCN(Cc2cccc(Nc3ncc(Cl)s3)n2)CC1.O=C(O)C(F)(F)F [Example 77, 6-((4-((4-chlorophenyl)acetyl)piperazin-1-yl)methyl)-N-(5-chlorothiazol-2-yl)pyridin-2-amine trifluoroacetate] | 4.1 | 1300 | 1600 | – | – | 51.8 | 2.2 | – | – | – | – | – | –
8 | CN(C)C(=O)c1cc(CN2CCN(C(=O)c3cccc(Cl)c3F)CC2)nc(Nc2nccs2)c1.O=C(O)C(F)(F)F [Example 86, 2-((4-(3-chloro-2-fluorobenzoyl)piperazin-1-yl)methyl)-N,N-dimethyl-6-(thiazol-2-ylamino)isonicotinamide trifluoroacetate] | 0.66 | 560 | 510 | – | – | – | – | – | – | – | – | 71.6 | 6.2

Further lines, with some results ahead:

Row | IC50 (Aurora A) [nM] | IC50 (Aurora B) [nM] | IC50 [1] [nM] | Compound | Cell growth inhibitory effect by combined administration of paclitaxel and the compound of Example (%) [2, 3] [%] | inhibition at 1 µM [2, 4] [%] | Cell growth inhibitory effect by combined administration of paclitaxel and the compound of Example (%) [2, 5] [%] | inhibition at 0.3 µM [2, 4] [%] | Cell growth inhibitory effect by combined administration of paclitaxel and the compound of Example (%) [2, 6] [%] | inhibition at 0.1 µM [2, 4] [%] | Cell growth inhibitory effect by combined administration of paclitaxel and the compound of Example (%) ([2]; HeLa S3, compound 3.0 μM + paclitaxel 1 nM) | inhibition at 3 µM ([2]; Homo sapiens, HeLa S3, 72 h, HeLa S3, compound 3.0 μM alone, read-out: Cell growth inhibitory effect by sole administration of the compound of Example (%)) [%] | Cell growth inhibitory effect by combined administration of paclitaxel and the compound of Example (%) [2, 7] [%] | inhibition at 0.03 µM [2, 4] [%]
9 | 2.2 | 5400 | 3600 | O=C(c1cccc(Cl)c1F)N1CCN(Cc2cncc(Nc3cc[nH]n3)n2)CC1 [Example 50, 6-((4-(3-chloro-2-fluorobenzoyl)piperazin-1-yl)methyl)-N-1H-pyrazol-3-ylpyrazin-2-amine] | 82.0 | 6 | – | – | – | – | – | – | – | –
10 | 2.1 | 2900 | 1400 | Cc1cc(Nc2cncc(CN3CCN(C(=O)c4cccc(Cl)c4F)CC3)n2)n[nH]1 [Example 56, 6-((4-(3-chloro-2-fluorobenzoyl)piperazin-1-yl)methyl)-N-(5-methyl-1H-pyrazol-3-yl)pyrazin-2-amine] | – | – | 81.8 | 6.5 | – | – | – | – | – | –
11 | 0.44 | 89 | 11000 | O=C(c1cccc(Cl)c1F)N1CCN(Cc2cccc(Nc3ncc(Cl)s3)n2)CC1 [Example 75, 6-((4-(3-chloro-2-fluorobenzoyl)piperazin-1-yl)methyl)-N-(5-chlorothiazol-2-yl)pyridin-2-amine] | – | – | 91.5 | 27.1 | – | – | – | – | – | –
12 | 0.38 | 200 | 360 | O=C(c1cccc(Cl)c1F)N1CCN(Cc2cc(CO)cc(Nc3nccs3)n2)CC1 [Example 89, (2-((4-(3-chloro-2-fluorobenzoyl)piperazin-1-yl)methyl)-6-(thiazol-2-ylamino)pyridin-4-yl)methanol] | – | – | – | – | 85.8 | 19.1 | – | – | – | –
13 | 0.59 | 250 | 220 | COCc1cc(CN2CCN(C(=O)c3cccc(Cl)c3F)CC2)nc(Nc2nccs2)c1 [Example 95, 6-((4-(3-chloro-2-fluorobenzoyl)piperazin-1-yl)methyl)-4-(methoxymethyl)-N-thiazol-2-ylpyridin-2-amine] | – | – | – | – | – | – | – | – | 73.5 | 0
14 | 1.1 | 1400 | 990 | N#Cc1cc(CN2CCN(C(=O)c3cccc(Cl)c3F)CC2)nc(Nc2nccs2)c1 [Example 104, 2-((4-(3-chloro-2-fluorobenzoyl)piperazin-1-yl)methyl)-6-(thiazol-2-ylamino)isonicotinonitrile] | – | – | 81.6 | 6.3 | – | – | – | – | – | –
